Values belong to the compound of their own block, whether it stands above or below them.
Key:
Experiment in all cases: competitive isoTOP-ABPP
Format in all cases: binding
[1] = molecular target: T1, MAP1LC3B Microtubule-associated proteins 1A/1B light chain (Homo sapiens, UniProt Q9GZQ8); set-up: key to isoTOP-ABPP reactivity ratio at lysine Q9GZQ8_K51: R = MS1 peak area ratio, DMSO (heavy) / compound-treated (light); details: for isoTOP-ABPP reactivity ratio at lysine Q9GZQ8_K51: 231 sol
T1 construct: isoTOP-ABPP experiments performed in cell lysates (in vitro); endogenous in cells; host or cells: soluble proteome of human cancer cell lines (MDA-MB-231; Ramos and Jurkat also prepared)
Description: (§1) In vitro covalent fragment treatment for isoTOP-ABPP. All compounds were made up as solutions in DMSO (100×) and were used at a final concentration of 50 μM for activated esters and 100 μM for guanidinylating agents. For each profiling sample, 0.5 ml of lysate was treated with 5 μl of the 100× compound stock solution or 5 μl of DMSO. Samples were treated with activated esters for
(§2) STP-alkyne labeling and click chemistry. For concentration-dependent reactivity measurements by isoTOP-ABPP, 0.5 ml proteome aliquots were treated at ambient temperature with 1 mM STP-alkyne 1 (5 μl of 100 mM stock in DMSO) and 0.1 mM STP alkyne 1 (5 μl of 10 mM stock in DMSO), respectively. For competitive isoTOP-ABPP, after in vitro fragment treatment (detailed above), the samples were labeled for 1 h at ambient temperature with 0.1 mM STP-alkyne 1 (5 μl of 10 mM stock in DMSO). Samples were conjugated by copper-mediated azide-alkyne cycloaddition (CuAAC) to either the light (1 mM STP-alkyne or fragment treated) or heavy (0.1 mM STP-alkyne or DMSO treated) TEV tags (10 μl of 5 mM stocks in DMSO, final concentration=100 μM) using tris(2-carboxyethyl)phosphine hydrochloride
(§3) R value calculation and processing. The ratios of light and heavy MS1 peaks for each unique peptide were quantified with a CIMAGE software using default parameters (3 MS1 acquisitions per peak and signal to noise threshold set to 2.5). For reactivity measurements by isoTOP-ABPP, the R value was calculated from the ratio of MS1 peak areas, comparing the 1 mM STP alkyne sample (light TEV tag) with the 0.1 mM STP alkyne sample (heavy TEV tag). For competitive isoTOP-ABPP, the R value was calculated from the ratio of MS1 peak areas, comparing the DMSO treated sample (heavy TEV tag) with the compound treated sample (light TEV tag). […] Ratios for unique peptide entries are calculated for each experiment; overlapping peptides with the same modified lysine (for example, different charge states, MudPIT chromatographic steps or tryptic termini) are grouped together and the median ratio is reported as the final ratio (R). The peptide ratios reported by CIMAGE were further filtered to ensure the removal or correction of low-quality ratios in each individual data set. The quality filters applied were the following: removal of half tryptic peptides; for ratios with high standard deviations from the median (90% of the median or above) the lowest ratio was taken instead of the median; removal of peptides with R=20 and only a single MS2 event triggered during the elution of the parent ion; manual annotation of all the peptides with ratios of 20, removing any peptides with low quality elution profiles that remained after the previous curation steps (only done for competitive isoTOP-ABPP).
(§4) Cross-data processing for fragment screening. For compound treated samples, biological replicates of the same condition were averaged, if the standard deviation was below 60% of the mean; otherwise, for lysines with at least one R value <4 for a particular compound, the lowest value of the ratio set was taken. For lysines, where all R values for a particular compound were ≥4, the average was reported. For peptides containing several possible modified lysines, the lysine with the highest number of quantification events was used for analysis and the remaining, redundant peptides were reported as alternative modification sites. Peptides included in the aggregate dataset (those used for further bioinformatics and statistical analyses) were required to have been quantified in 2 experiments for competitive isoTOP-ABPP. Lysines were categorized as liganded, if they had at least one ratio R≥4 (hit fragments). For liganded lysines with R=20 for all liganding events, lysines were required to have been quantified with R=20 in two separate experiments and were further required to have been quantified with R<20 in one additional experiment.

[2] = molecular target: T2, CPOX Coproporphyrinogen-III oxidase, mitochondrial (Homo sapiens, UniProt P36551); set-up: key to isoTOP-ABPP reactivity ratio at lysine P36551_K404: R = MS1 peak area ratio, DMSO (heavy) / compound-treated (light); details: for isoTOP-ABPP reactivity ratio at lysine P36551_K404 / isoTOP-ABPP ratio (R) at liganded lysine P36551_K404: 50 uM, in vitro; for isoTOP-ABPP reactivity ratio at lysine P36551_K404: 231 sol; for isoTOP-ABPP ratio (R) at liganded lysine P36551_K404: sol, 231
T2 construct: isoTOP-ABPP experiments performed in cell lysates (in vitro); endogenous in cells; host or cells: soluble proteome of human cancer cell lines (MDA-MB-231; Ramos and Jurkat also prepared)
T2 sequence (P36551 111-454): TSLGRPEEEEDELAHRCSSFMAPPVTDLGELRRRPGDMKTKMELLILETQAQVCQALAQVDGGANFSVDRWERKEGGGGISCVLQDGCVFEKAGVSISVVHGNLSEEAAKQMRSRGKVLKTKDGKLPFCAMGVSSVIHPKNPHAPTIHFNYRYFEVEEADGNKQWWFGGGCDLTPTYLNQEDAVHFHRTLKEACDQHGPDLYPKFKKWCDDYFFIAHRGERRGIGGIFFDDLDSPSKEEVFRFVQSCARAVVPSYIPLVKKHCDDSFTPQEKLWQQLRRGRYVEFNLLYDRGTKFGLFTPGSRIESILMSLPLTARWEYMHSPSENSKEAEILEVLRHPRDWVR
Description: as §1, §2, §3, §4

[3] = molecular target: T3, TPMT Thiopurine S-methyltransferase (Homo sapiens, UniProt P51580); set-up: key to isoTOP-ABPP reactivity ratio at lysine P51580_K32: R = MS1 peak area ratio, DMSO (heavy) / compound-treated (light); details: for isoTOP-ABPP reactivity ratio at lysine P51580_K32: 231 sol; for isoTOP-ABPP ratio, lysine P51580_K32: 50 uM_231_sol_in vitro
T3 construct: isoTOP-ABPP experiments performed in cell lysates (in vitro); endogenous in cells; host or cells: soluble proteome of human cancer cell lines (MDA-MB-231; Ramos and Jurkat also prepared)
T3 sequence (P51580 1-245): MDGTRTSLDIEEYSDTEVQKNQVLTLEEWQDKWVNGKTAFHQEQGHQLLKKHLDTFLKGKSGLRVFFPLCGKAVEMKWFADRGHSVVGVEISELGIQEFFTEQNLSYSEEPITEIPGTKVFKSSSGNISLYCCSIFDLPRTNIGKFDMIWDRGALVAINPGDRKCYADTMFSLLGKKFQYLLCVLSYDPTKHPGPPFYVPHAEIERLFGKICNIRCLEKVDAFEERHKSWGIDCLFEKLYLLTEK
Description: as §1, §2, §3, §4

[4] = molecular target: T4, ISOC2 Isochorismatase domain-containing protein 2, mitochondrial (Homo sapiens, UniProt Q96AB3); set-up: key to isoTOP-ABPP reactivity ratio at lysine Q96AB3_K178: R = MS1 peak area ratio, DMSO (heavy) / compound-treated (light); capped at 20; details: for isoTOP-ABPP ratio (R) at liganded lysine Q96AB3_K178: sol, 231
T4 construct: isoTOP-ABPP experiments performed in cell lysates (in vitro); endogenous in cells; host or cells: soluble proteome of human cancer cell lines (MDA-MB-231; Ramos and Jurkat also prepared)
T4 sequence (Q96AB3 1-205): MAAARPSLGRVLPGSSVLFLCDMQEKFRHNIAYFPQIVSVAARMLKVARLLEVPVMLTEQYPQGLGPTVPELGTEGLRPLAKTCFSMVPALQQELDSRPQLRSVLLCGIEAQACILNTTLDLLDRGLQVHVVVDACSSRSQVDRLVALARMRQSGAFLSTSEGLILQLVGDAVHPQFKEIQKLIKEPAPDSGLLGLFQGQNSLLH
Description: as §1, §2, §3, §4

Compound: O=C(Oc1ccc([N+](=O)[O-])cc1[N+](=O)[O-])c1ccc2ccccc2n1 [fragment 35, 2,4-Dinitrophenyl quinoline-2-carboxylate]
isoTOP-ABPP ratio (R) at liganded lysine Q9GZQ8_K51 ([1]; 50 uM, in vitro, sol, 231): 1.0
isoTOP-ABPP ratio (R) at liganded lysine P36551_K404 [2]: 1.2
isoTOP-ABPP ratio (R) at liganded lysine Q96AB3_K178 ([4]; 50 uM, in vitro): 1.3

Compound: O=C(Oc1c(F)c(F)c(F)c(F)c1F)C1CCN(C(=O)OCc2ccccc2)CC1 [fragment 24, 1-Benzyl 4-(pentafluorophenyl) piperidine-1,4-dicarboxylate]
isoTOP-ABPP reactivity ratio at lysine Q9GZQ8_K51 ([1]; 50 uM, in vitro): 1.1
isoTOP-ABPP reactivity ratio at lysine P36551_K404 [2]: 1.2
isoTOP-ABPP reactivity ratio at lysine P51580_K32 ([3]; 50 uM, in vitro): 1.0

Compound: O=C(ON1C(=O)CCC1=O)c1cc(C(F)(F)F)cc(C(F)(F)F)c1 [fragment 46, 3,5-Bis(trifluoromethyl)benzoic acid NHS ester]
isoTOP-ABPP ratio, lysine P36551_K404 ([2]; 50 uM_231_sol_in vitro): 1.0
isoTOP-ABPP ratio, lysine Q96AB3_K178 ([4]; 50 uM_231_sol_in vitro): 1.5
isoTOP-ABPP ratio, lysine P51580_K32 [3]: 20.0

Compound: CC(=O)Oc1ccc([N+](=O)[O-])cc1[N+](=O)[O-] [fragment 43, 2,4-Dinitrophenyl acetate]
isoTOP-ABPP ratio (R) at liganded lysine P36551_K404 [2]: 1.1
isoTOP-ABPP ratio (R) at liganded lysine Q96AB3_K178 ([4]; 50 uM, in vitro): 1.1
isoTOP-ABPP ratio (R) at liganded lysine P51580_K32 ([3]; 50 uM, in vitro, sol, 231): 1.5

Continued, values first:

isoTOP-ABPP reactivity ratio at lysine Q9GZQ8_K51 ([1]; 50 uM, in vitro): 1.2
isoTOP-ABPP reactivity ratio at lysine P36551_K404 [2]: 1.1
isoTOP-ABPP reactivity ratio at lysine P51580_K32 ([3]; 50 uM, in vitro): 1.0
Compound: O=C(CCc1coc2cc(F)ccc2c1=O)Oc1c(F)c(F)c(F)c(F)c1F [fragment 26, Pentafluorophenyl 3-(7-fluoro-4-oxo-4H-chromen-3-yl)propanoate]

isoTOP-ABPP ratio, lysine P36551_K404 ([2]; 50 uM_231_sol_in vitro): 0.9
isoTOP-ABPP ratio, lysine Q96AB3_K178 ([4]; 50 uM_231_sol_in vitro): 0.9
isoTOP-ABPP ratio, lysine P51580_K32 [3]: 0.8
Compound: NC(=O)c1cc(C(F)(F)F)cc(C(F)(F)F)c1 [fragment 51, reference compound]

isoTOP-ABPP reactivity ratio at lysine Q9GZQ8_K51 ([1]; 50 uM, in vitro): 1.0
isoTOP-ABPP reactivity ratio at lysine P36551_K404 [2]: 1.2
isoTOP-ABPP reactivity ratio at lysine Q96AB3_K178 ([4]; 50 uM, 231 sol, in vitro): 1.3
isoTOP-ABPP reactivity ratio at lysine P51580_K32 ([3]; 50 uM, in vitro): 1.3
Compound: O=C(CN1C(=O)c2ccccc2C1=O)Oc1c(F)c(F)c(F)c(F)c1F [fragment 27, Pentafluorophenyl 2-(1,3-dioxoisoindolin-2-yl)acetate]

isoTOP-ABPP ratio, lysine Q9GZQ8_K51 ([1]; 100 uM_231_sol_in vitro): 1.6
isoTOP-ABPP ratio, lysine P36551_K404 ([2]; 100 uM_231_sol_in vitro): 2.5
isoTOP-ABPP ratio, lysine Q96AB3_K178 ([4]; 100 uM_231_sol_in vitro): 1.1
Compound: COC(=O)NC(=NC(=O)OCC1c2ccccc2-c2ccccc21)n1cccn1 [fragment 49, N-Methoxycarbonyl-N′-9-fluorenylmethoxycarbonyl-pyrazole-1-carboxamidine]
